According to PubChem BioAssay AID1918991 (Molecular Pharmacology Branch, DTP, NCI, 2023):

Test system: 186277-243-T-J2-PDC complex spheroid growth
Assay: Anticancer human tumor 186277-243-T-J2-PDC patient-derived colon adenocarcinoma cell line growth inhibition [AhR]
Conditions: for IC50: curve of first compound; for viability, T/C: stronger effect = lower value
How it was run: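 Complex tumor spheroids co-cultured with HUVEC and human MSC stroma; AhR antagonists tested in combination with standard-of-care and investigational agents. Top concentration at or near clinical Cmax (else 10 microM), half-log dilutions; growth expressed as percent test/control.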

[1] = second compound 0.1 µM, first compound 0.00949 µM
[2] = second compound 0.1 µM, first compound 0.03 µM
[3] = second compound 0.1 µM, first compound 0.0949 µM
[4] = second compound 0.1 µM, first compound 0.3 µM
[5] = second compound 0.1 µM, first compound 0.949 µM
[6] = second compound 0.1 µM, first compound 3 µM
[7] = second compound 0.316 µM, first compound 0.00949 µM
[8] = second compound 0.316 µM, first compound 0.03 µM
[9] = second compound 0.316 µM, first compound 0.0949 µM
[10] = second compound 0.316 µM, first compound 0.3 µM
[11] = second compound 0.316 µM, first compound 0.949 µM
[12] = second compound 0.316 µM, first compound 3 µM
[13] = second compound 1 µM, first compound 0.00949 µM
[14] = second compound 1 µM, first compound 0.03 µM
[15] = second compound 1 µM, first compound 0.0949 µM
[16] = second compound 1 µM, first compound 0.3 µM
[17] = second compound 1 µM, first compound 0.949 µM
[18] = second compound 1 µM, first compound 3 µM
[19] = second compound 3.16 µM, first compound 0.00949 µM
[20] = second compound 3.16 µM, first compound 0.03 µM
[21] = second compound 3.16 µM, first compound 0.0949 µM
[22] = second compound 3.16 µM, first compound 0.3 µM
[23] = second compound 3.16 µM, first compound 0.949 µM
[24] = second compound 3.16 µM, first compound 3 µM
[25] = second compound 10 µM, first compound 0.00949 µM
[26] = second compound 10 µM, first compound 0.03 µM
[27] = second compound 10 µM, first compound 0.0949 µM
[28] = second compound 10 µM, first compound 0.3 µM
[29] = second compound 10 µM, first compound 0.949 µM
[30] = second compound 10 µM, first compound 3 µM
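Also: spheroids exposed to compounds for seven days before the viability read.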
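For viability, T/C in this document: luminescent signal used as a stand-in for viable cell amount; 100% = DMSO vehicle control wells.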

IC50 (second compound 0.1 µM) [nM] | IC50 (second compound 0.316 µM) [nM] | IC50 (second compound 1 µM) [nM] | IC50 (second compound 3.16 µM) [nM] | IC50 (second compound 10 µM) [nM] | SMILES | viability, T/C [1] [%] | viability, T/C [2] [%] | viability, T/C [3] [%] | viability, T/C [4] [%] | viability, T/C [7] [%] | viability, T/C [8] [%] | viability, T/C [9] [%] | viability, T/C [10] [%] | viability, T/C [13] [%] | viability, T/C [14] [%] | viability, T/C [15] [%] | viability, T/C [16] [%] | viability, T/C [19] [%] | viability, T/C [20] [%] | viability, T/C [21] [%] | also measured
> 3000 | > 3000 | > 3000 | > 3000 | > 3000 | CCN(c1cc(-c2ccc(CN3CCOCC3)cc2)cc(C(=O)NCc2c(C)cc(C)[nH]c2=O)c1C)C1CCOCC1 + CC(CO)NC(=O)c1cc(-c2ccc(Cl)cc2)nn(-c2cnn(C)c2)c1=O | 97.8 | 106 | 82.9 | 94.5 | 109 | 95.8 | 89.8 | 93.3 | 83.5 | 90.5 | 88.2 | 87.8 | 96.5 | 101 | 89.4 | viability, T/C [5]: 102%; viability, T/C [6]: 85.1%; viability, T/C [11]: 90.3%; viability, T/C [12]: 91.9%; viability, T/C [17]: 82.2%; viability, T/C [18]: 101%; viability, T/C [22]: 80.7%; viability, T/C [23]: 92.3%; viability, T/C [24]: 85.8%; viability, T/C [25]: 88.5%; viability, T/C [26]: 69.8%; viability, T/C [27]: 80.5%; viability, T/C [28]: 87.4%; viability, T/C [29]: 73.5%; viability, T/C [30]: 82.6%
139 | 118 | 132 | 142 | 118 | Nc1ncn(C2CC(O)C(CO)S2)c(=O)n1 (stereo not given) + CC(CO)NC(=O)c1cc(-c2ccc(Cl)cc2)nn(-c2cnn(C)c2)c1=O | 93 | 85.6 | 59.6 | 29.9 | 92.8 | 93.1 | 55 | 29.1 | 99.4 | 94.2 | 56.7 | 33.1 | 92 | 85 | 59.8 | viability, T/C (second compound 0.1 µM, first compound 0.000949 µM): 101%; viability, T/C (second compound 0.1 µM, first compound 0.003 µM): 94.8%; viability, T/C (second compound 0.316 µM, first compound 0.000949 µM): 83.6%; viability, T/C (second compound 0.316 µM, first compound 0.003 µM): 92.8%; viability, T/C (second compound 1 µM, first compound 0.000949 µM): 102%; viability, T/C (second compound 1 µM, first compound 0.003 µM): 100%; viability, T/C (second compound 3.16 µM, first compound 0.000949 µM): 82%; viability, T/C (second compound 3.16 µM, first compound 0.003 µM): 93%; viability, T/C [22]: 32%; viability, T/C (second compound 10 µM, first compound 0.000949 µM): 89.1%; viability, T/C (second compound 10 µM, first compound 0.003 µM): 75.1%; viability, T/C [25]: 89.1%; viability, T/C [26]: 66.8%; viability, T/C [27]: 55.1%; viability, T/C [28]: 34.2%
86.6 | 89.2 | 73.2 | 72.9 | 43.9 | O=C(C=Cn1cnc(-c2cc(C(F)(F)F)cc(C(F)(F)F)c2)n1)NNc1cnccn1 + CC(CO)NC(=O)c1cc(-c2ccc(Cl)cc2)nn(-c2cnn(C)c2)c1=O | 80.4 | 78.3 | 46.8 | 13.1 | 78 | 83.5 | 46.7 | 12.6 | 83.3 | 67.6 | 46.9 | 13.4 | 67.8 | 63.8 | 46 | viability, T/C [5]: 3.75%; viability, T/C [6]: 1.33%; viability, T/C [11]: 4.18%; viability, T/C [12]: 1.56%; viability, T/C [17]: 4.21%; viability, T/C [18]: 1.3%; viability, T/C [22]: 12.6%; viability, T/C [23]: 4.26%; viability, T/C [24]: 2.11%; viability, T/C [25]: 62%; viability, T/C [26]: 55%; viability, T/C [27]: 38%; viability, T/C [28]: 11.7%; viability, T/C [29]: 3.48%; viability, T/C [30]: 2.03%
